This is an account of results in US11254661B2, “Quinoline derivatives for treating infections with helminths” (Bayer Animal Health GMBH, priority 2017, dated 2022).

One test deals with C. elegans Slo-1a (Caenorhabditis elegans, UniProt Q95V25).
For test [1], the system named is Dirofilaria immitis microfilariae. Kind of test: In Vitro Assay 2: Dirofilaria immitis microfilariae (DIROIM L1) motility. As to conditions: 72 h.

Molecules are shown by their SMILES.

Sequence of C. elegans Slo-1a (Q95V25 whole entry): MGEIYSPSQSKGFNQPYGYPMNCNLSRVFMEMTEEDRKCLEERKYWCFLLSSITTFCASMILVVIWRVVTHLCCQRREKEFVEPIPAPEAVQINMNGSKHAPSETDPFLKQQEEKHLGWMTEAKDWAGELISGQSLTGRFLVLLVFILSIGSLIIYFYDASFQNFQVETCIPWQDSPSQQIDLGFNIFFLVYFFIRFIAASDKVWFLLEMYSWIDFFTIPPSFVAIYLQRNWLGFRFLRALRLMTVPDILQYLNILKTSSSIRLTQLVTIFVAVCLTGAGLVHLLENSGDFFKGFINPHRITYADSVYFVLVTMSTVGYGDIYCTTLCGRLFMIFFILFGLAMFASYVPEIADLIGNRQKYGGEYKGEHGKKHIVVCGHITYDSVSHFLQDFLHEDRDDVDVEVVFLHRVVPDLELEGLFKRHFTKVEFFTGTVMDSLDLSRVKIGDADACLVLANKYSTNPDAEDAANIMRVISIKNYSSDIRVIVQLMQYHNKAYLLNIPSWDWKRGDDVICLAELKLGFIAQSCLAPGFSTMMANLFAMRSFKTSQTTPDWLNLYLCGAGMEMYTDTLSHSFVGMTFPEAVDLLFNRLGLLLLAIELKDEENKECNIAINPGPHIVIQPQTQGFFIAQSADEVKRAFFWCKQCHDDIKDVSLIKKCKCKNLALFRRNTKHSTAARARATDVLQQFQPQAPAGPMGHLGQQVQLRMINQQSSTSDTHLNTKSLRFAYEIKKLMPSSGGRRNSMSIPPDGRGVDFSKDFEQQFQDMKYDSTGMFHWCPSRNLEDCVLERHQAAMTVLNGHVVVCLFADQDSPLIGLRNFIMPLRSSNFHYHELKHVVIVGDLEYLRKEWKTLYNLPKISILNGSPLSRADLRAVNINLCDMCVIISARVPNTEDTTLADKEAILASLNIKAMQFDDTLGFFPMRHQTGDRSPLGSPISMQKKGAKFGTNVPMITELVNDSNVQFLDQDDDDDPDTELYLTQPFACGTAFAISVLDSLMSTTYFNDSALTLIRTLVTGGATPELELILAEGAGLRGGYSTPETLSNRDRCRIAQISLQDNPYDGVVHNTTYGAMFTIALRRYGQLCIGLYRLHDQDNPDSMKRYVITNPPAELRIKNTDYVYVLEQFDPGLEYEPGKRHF
Method for C. elegans Slo-1a: In Vitro Assay 1: C. elegans Slo-1a—Action at a Recombinant C. elegans Cell Line
Cells were cultured at 37° C. and 5% CO2 in MEMalpha with Gutamax I (Invitrogen, Nr.: 32571), supplemented with 10% (v/v) heat inactivated fetal bovine serum (Invitrogen, Nr.: 10500), G418 (1 mg/ml, Invitrogen, Nr.: 10131). Cells were detached using Accutase (Sigma, Nr.: A6964).
Membrane Potential Measurements
Laboratory compound testing was performed on 384-well microtiter plates (MTPs, Greiner, Nr.: 781092). 8000 cells/well were plated onto 384-well MTPs and cultured for 20 to 24 hours at 37° C. and 5% CO2. After removal of the cell culture medium, the cells were washed once with tyrode (150 mM NaCl, 0.3 mM KCl, 2 mM CaCl2, 1 mM MgCl2, 0.8 mM NaH2PO4, 5 mM Glucose, 28 mM Hepes, pH 7.4) and then loaded with the voltage sensitive dye of the Membrane Potential Assay Kit diluted in tyrode for 1 h at room temperature.
After starting the measurement of fluorescence using a FLIPR Tetra(Molecular Devices, Exc. 510-545 nm, Emm. 565-625 nm), test compounds were added followed by the addition of KCl tyrode (final assay concentration: 70 mM KCl, 2 mM CaCl2, 1 mM MgCl2, 0.8 mM NaH2PO4, 5 mM Glucose, 28 mM Hepes, pH 7.4, including the voltage sensitive dye). The measurement was completed after 7 minutes.

The EC50 is the midpoint of the concentration-response curve. With `CC(C)C#Cc1cccc2c(N(C)C)c(C(=O)N[C@H]3CCOc4ccccc43)cnc12` [Example 1, (S)—N-(Chroman-4-yl)-4-(dimethylamino)-8-(3-methylbut-1-yn-1-yl)quinoline-3-carboxamide], the EC50 on C. elegans Slo-1a was 31.6 to 316 nM; in test [1], under 10 µg/mL.
On the same counts, the results for `COCC#Cc1cccc2c(N(C)C)c(C(=O)N[C@H]3CCOc4ccccc43)cnc12` [Example 2, (S)—N-(Chroman-4-yl)-4-(dimethylamino)-8-(3-methoxyprop-1-yn-1-yl)quinoline-3-carboxamide] are 316 to 5010 nM and under 10 µg/mL.
In the same order, the values of `CC(C)CCc1cccc2c(N(C)C)c(C(=O)N[C@H]3CCOc4ccccc43)cnc12` [Example 3, (S)—N-(Chroman-4-yl)-4-(dimethylamino)-8-isopentylquinoline-3-carboxamide] are 3.16 to 31.6 nM and under 1 µg/mL.
As to `COCCCc1cccc2c(N(C)C)c(C(=O)N[C@H]3CCOc4ccccc43)cnc12` [Example 4, (S)—N-(Chroman-4-yl)-4-(dimethylamino)-8-(3-methoxypropyl)quinoline-3-carboxamide], the figures for the EC50 (at C. elegans Slo-1a; in test [1]) were 316 to 5010 nM and under 10 µg/mL, respectively.
On the same counts, the results for `CN(C)c1c(C(=O)N[C@H]2CCOc3ccccc32)cnc2c(C3COC3)cccc12` [Example 5, (S)—N-(Chroman-4-yl)-4-(dimethylamino)-8-(oxetan-3-yl)quinoline-3-carboxamide] are 316 to 5010 nM and under 10 µg/mL.
On the same counts, the results for `CN(C)c1c(C(=O)N[C@H]2CCOc3ccccc32)cnc2c(C3CCOCC3)cccc12` [Example 6, (S)—N-(Chroman-4-yl)-4-(dimethylamino)-8-(tetrahydro-2H-pyran-4-yl)quinoline-3-carboxamide] are 31.6 to 316 nM and under 1 µg/mL.
In the same order, the values of `CN(C)c1c(C(=O)N[C@H]2CCOc3ccccc32)cnc2c(C3=CCCC3)cccc12` [Example 7, (S)—N-(Chroman-4-yl)-8-(cyclopent-1-en-1-yl)-4-(dimethylamino)quinoline-3-carboxamide] are 3.16 to 31.6 nM and under 1 µg/mL.
`CN(C)c1c(C(=O)N[C@H]2CCOc3ccccc32)cnc2c(C3CCCC3)cccc12` [Example 8, (S)—N-(Chroman-4-yl)-8-cyclopentyl-4-(dimethylamino)quinoline-3-carboxamide]: the results for the EC50 (on C. elegans Slo-1a; in test [1]) were under 3.16 nM and under 0.1 µg/mL, respectively.
In the same order, the values of `C=C(C)c1cccc2c(N(C)C)c(C(=O)N[C@H]3CCOc4ccccc43)cnc12` [Example 9, (S)—N-(Chroman-4-yl)-4-(dimethylamino)-8-(prop-1-en-2-yl)quinoline-3-carboxamide] are 31.6 to 316 nM and under 1 µg/mL.
On the same counts, the results for `CC(C)c1cccc2c(N(C)C)c(C(=O)N[C@H]3CCOc4ccccc43)cnc12` [Example 10, (S)—N-(Chroman-4-yl)-4-(dimethylamino)-8-isopropylquinoline-3-carboxamide] are 31.6 to 316 nM and under 1 µg/mL.
Take `CN(C)c1c(C(=O)N[C@H]2CCOc3ccccc32)cnc2c(C3=CCCCC3)cccc12` [Example 11, (S)—N-(Chroman-4-yl)-8-(cyclohex-1-en-1-yl)-4-(dimethylamino)quinoline-3-carboxamide]: the EC50 at C. elegans Slo-1a was 3.16 to 31.6 nM; in test [1], under 1 µg/mL.
Regarding `CN(C)c1c(C(=O)N[C@H]2CCOc3ccccc32)cnc2c(C3CCCCC3)cccc12` [Example 12, (S)—N-(Chroman-4-yl)-8-cyclohexyl-4-(dimethylamino)quinoline-3-carboxamide], the EC50 was 3.16 to 31.6 nM at C. elegans Slo-1a and under 0.1 µg/mL in test [1].
Consider `CN(C)c1c(C(=O)N[C@H]2CCOc3ccccc32)cnc2c(C3=CCOCC3)cccc12` [Example 13, (S)—N-(Chroman-4-yl)-8-(3,6-dihydro-2H-pyran-4-yl)-4-(dimethylamino)quinoline-3-carboxamide], for which the EC50 at C. elegans Slo-1a is 31.6 to 316 nM; in test [1], under 1 µg/mL.
On the same counts, the results for `CN(C)c1c(C(=O)N[C@H]2CCOc3ccccc32)cnc2c(C3=CCCCCC3)cccc12` [Example 14, (S)—N-(Chroman-4-yl)-8-(cyclohept-1-en-1-yl)-4-(dimethylamino)quinoline-3-carboxamide] are 3.16 to 31.6 nM and under 0.1 µg/mL.
On the same counts, the results for `CN(C)c1c(C(=O)N[C@H]2CCOc3ccccc32)cnc2c(C3=CCC(C(F)(F)F)CC3)cccc12` (stereo partly drawn) [Example 16, N—((S)-Chroman-4-yl)-4-(dimethylamino)-8-(4-(trifluoromethyl)cyclohex-1-en-1-yl)quinoline-3-carboxamide] are 3.16 to 31.6 nM and under 1 µg/mL.
Regarding `CN(C)c1c(C(=O)N[C@H]2CCOc3ccccc32)cnc2c(C3CCC(C(F)(F)F)CC3)cccc12` (stereo partly drawn) [Example 17, N—((S)-Chroman-4-yl)-4-(dimethylamino)-8-(4-(trifluoromethyl)cyclohexyl)quinoline-3-carboxamide], the EC50 was 3.16 to 31.6 nM at C. elegans Slo-1a and under 0.1 µg/mL in test [1].
On the same counts, the results for `CN(C)c1c(C(=O)N[C@H]2CCOc3ccccc32)cnc2c(C3CCC(C)(C)CC3)cccc12` [Example 19, (S)—N-(Chroman-4-yl)-4-(dimethylamino)-8-(4,4-dimethylcyclohexyl)quinoline-3-carboxamide] are 31.6 to 316 nM and under 1 µg/mL.
On the same counts, the results for `CN(C)c1c(C(=O)N[C@H]2CCOc3ccccc32)cnc2c(C3CN(C(=O)OC(C)(C)C)C3)cccc12` [Example 20, tert-Butyl(S)-3-(3-(chroman-4-ylcarbamoyl)-4-(dimethylamino)quinolin-8-yl)azetidine-1-carboxylate] are 316 to 5010 nM and under 10 µg/mL.
On the same counts, the results for `CN(C)c1c(C(=O)N[C@H]2CCOc3ccccc32)cnc2c(C3=CCNCC3)cccc12` [Example 21, (S)—N-(Chroman-4-yl)-4-(dimethylamino)-8-(1,2,3,6-tetrahydropyridin-4-yl)quinoline-3-carboxamide] are 316 to 5010 nM and under 10 µg/mL.
Take `C[C@H]1COCCN1c1cccc2c(N3CCOCC3)c(C(=O)N[C@H]3CCOc4ccccc43)cnc12` [Example 23, N-[(4S)-3,4-Dihydro-2H-chromen-4-yl]-8-[(3S)-3-methylmorpholin-4-yl]-4-(morpholin-4-yl)quinoline-3-carboxamide]: the EC50 was 316 to 5010 nM at C. elegans Slo-1a and under 10 µg/mL in test [1].
In the case of `O=C(N[C@H]1CCOc2ccccc21)c1cnc2c(N3CCOCC3)cccc2c1N1CCOCC1` [Example 24, N-[(4S)-3,4-dihydro-2H-chromen-4-yl]-4,8-di(morpholin-4-yl)quinoline-3-carboxamide], the figures for the EC50 (at C. elegans Slo-1a; in test [1]) were 316 to 5010 nM and under 10 µg/mL, respectively.
On the same counts, the results for `O=C(N[C@H]1CCOc2ccccc21)c1cnc2c(NC3CCCCC3)cccc2c1N1CCOCC1` [Example 25, 8-(cyclohexylamino)-N-[(4S)-3,4-dihydro-2H-chromen-4-yl]-4-(morpholin-4-yl)quinoline-3-carboxamide] are 3.16 to 31.6 nM and under 10 µg/mL.
In the same order, the values of `CC(C)(C)OC(=O)Nc1cccc2c(N3CCOCC3)c(C(=O)N[C@H]3CCOc4ccccc43)cnc12` [Example 26, tert-butyl {3-[(4S)-3,4-dihydro-2H-chromen-4-ylcarbamoyl]-4-(morpholin-4-yl)quinolin-8-yl}carbamate] are 3.16 to 31.6 nM and under 0.1 µg/mL.
On the same counts, the results for `C[C@@H]1COCCN1c1cccc2c(N3CCOCC3)c(C(=O)N[C@H]3CCOc4ccccc43)cnc12` [Example 27, N-[(4S)-3,4-dihydro-2H-chromen-4-yl]-8-[(3R)-3-methylmorpholin-4-yl]-4-(morpholin-4-yl)quinoline-3-carboxamide] are 316 to 5010 nM and under 1 µg/mL.
On to `CC(=O)Nc1cccc2c(N3CCOCC3)c(C(=O)N[C@H]3CCOc4ccccc43)cnc12` [Example 28, 8-(acetylamino)-N-[(4S)-3,4-dihydro-2H-chromen-4-yl]-4-(morpholin-4-yl)quinoline-3-carboxamide], for which the figures for the EC50 (at C. elegans Slo-1a; in test [1]) were 316 to 5010 nM and under 10 µg/mL, respectively.
In the same order, the values of `O=C(N[C@H]1CCOc2ccccc21)c1cnc2c(N3CCCCC3)cccc2c1N1CCOCC1` [Example 29, N-[(4S)-3,4-dihydro-2H-chromen-4-yl]-4-(morpholin-4-yl)-8-(piperidin-1-yl)quinoline-3-carboxamide] are 31.6 to 316 nM and under 0.1 µg/mL.
On the same counts, the results for `CN(C)c1c(C(=O)N[C@H]2CCOc3ccccc32)cnc2c(N3CCCCC3)cccc12` [Example 30, N-[(4S)-3,4-dihydro-2H-chromen-4-yl]-4-(dimethylamino)-8-(piperidin-1-yl)quinoline-3-carboxamide] are 31.6 to 316 nM and under 1 µg/mL.
In the same order, the values of `C[C@@H]1CN(c2cccc3c(N4CCOCC4)c(C(=O)N[C@H]4CCOc5ccccc54)cnc23)C[C@H](C)O1` [Example 31, N-[(4S)-3,4-dihydro-2H-chromen-4-yl]-8-[(2R,6S)-2,6-dimethylmorpholin-4-yl]-4-(morpholin-4-yl)quinoline-3-carboxamide] are 31.6 to 316 nM and under 10 µg/mL.
In the case of `C[C@@H]1CN(c2cccc3c(N4CCOCC4)c(C(=O)N[C@H]4CCOc5ccccc54)cnc23)C[C@@H](C)O1` [Example 32, N-[(4S)-3,4-dihydro-2H-chromen-4-yl]-8-[(2R,6R)-2,6-dimethylmorpholin-4-yl]-4-(morpholin-4-yl)quinoline-3-carboxamide], the EC50 on C. elegans Slo-1a was 316 to 5010 nM; in test [1] it was under 1 µg/mL.
In the same order, the values of `CC(C)c1c(C(=O)N[C@H]2CCOc3ccccc32)cnc2c(N3CCCCC3)cccc12` [Example 35, N-[(4S)-3,4-dihydro-2H-chromen-4-yl]-8-(piperidin-1-yl)-4-(propan-2-yl)quinoline-3-carboxamide] are 31.6 to 316 nM and under 0.1 µg/mL.
As to `CC(C)c1c(C(=O)N[C@H]2CCOc3ccccc32)cnc2c(N3C[C@H](C)C[C@H](C)C3)cccc12` [Example 36, N-[(4S)-3,4-dihydro-2H-chromen-4-yl]-8-[(3R,5S)-3,5-dimethylpiperidin-1-yl]-4-(propan-2-yl)quinoline-3-carboxamide], the EC50 on C. elegans Slo-1a was 3.16 to 31.6 nM; in test [1], under 0.1 µg/mL.
